Here are results for 4 molecules from patent publication US10639301B2 (Commissariat a L'Energie Atomique et Aux Energies …, priority 2013, dated 2020).

Data set [1] relates to narcoleptic Ox-/- mice. The settings on record: orexin KO mouse model, literature; cited from earlier work.
Data set [2] concerns narcoleptic Ox-/- mice. The data set can be described thus: DREM cataplectic-like episodes in narcoleptic orexin knockout mice. The class given is in vivo. The settings on record: oral.
The conditions of data set [3]: poor metabolizers (PM) of sparteine/debrisoquine, 50 mg racemic flecainide acetate (Gross et al, 1989); cited from earlier work.
The subject of data set [4] is mice. The data set can be described thus: T-maze alternating sequential test (spatial working memory). The class given is in vivo. The conditions noted are these: intraperitoneal. The text has this: The alternating sequential test is widely used to assess spatial working memory in mice (Beracochea & Jaffard, 1987). Spontaneous alternation is the innate tendency of rodents to alternate their choices to entry into the compartments of arrival of a T-maze device, over successive trials. To alternate during a given trial N, the animal must remember the choice made selectively in test N−1, so the decline in alternating will reflect the phenomenon of oblivion. The response in alternating is performance measure. Sequential alternating assesses more specifically the sensitivity to interference, a major factor in oblivion.
The experiment takes place in a T-maze (50 cm×10 cm×25 cm). All the subjects were given 7 successive trials separated by a 120-s intertrial interval. To begin a trial, the mouse was placed in the start box for 120 s before the door to the stem was opened. When the subject entered one of the goal arms, the door to that arm was closed. The chosen arm and the time that elapsed between opening the door and the arrival to the end of the chosen arm (task achievement time) were registered. Following a 30-s confinement period (fixed and invariant) in the chosen arm, the animal was removed and placed in the start box for a new trial. Between each test, the unit is cleaned with a cloth soaked in water and alcohol to avoid olfactory detection. […]

The target of a further data set is T1, Cx43 (Homo sapiens, UniProt P17302).
T1 construct: expressed in transfected cells; host or cells: rat insulinoma RIN cell line (Rin-Cx43), pcDNA3.1/V5-His-TOPO, geneticin-selected
T1 sequence (P17302 2-382 limits assumed): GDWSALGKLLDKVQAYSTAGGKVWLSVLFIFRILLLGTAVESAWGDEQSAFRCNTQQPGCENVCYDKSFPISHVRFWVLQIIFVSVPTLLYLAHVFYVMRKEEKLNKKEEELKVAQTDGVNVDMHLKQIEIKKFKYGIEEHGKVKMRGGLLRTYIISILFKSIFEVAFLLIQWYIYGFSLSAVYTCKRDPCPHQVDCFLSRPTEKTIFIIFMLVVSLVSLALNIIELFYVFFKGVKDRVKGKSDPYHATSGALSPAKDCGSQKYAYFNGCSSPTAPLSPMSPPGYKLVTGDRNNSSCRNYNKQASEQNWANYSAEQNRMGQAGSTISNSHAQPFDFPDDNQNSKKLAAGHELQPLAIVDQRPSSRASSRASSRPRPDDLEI
As to the kind of experiment: Dye transfer (cell-parachute) gap junction assay, Rin-Cx43 cells. The class given is cell-based. The conditions noted are these: flecainide racemate 70, 140 or 280 μM, 4 hours, flow cytometry. Here is the method: (§1) The rat insulinoma RIN cell line, deficient in GJIC (del Corsso et al, 2006), was grown in OptiMem medium, supplemented with 10% fetal calf serum. GJB6 (Cx30), GJB1 (Cx32), GJB2 (Cx26), GJA5 (Cx40) and GJA1 (Cx43) open reading frames were amplified from human cDNA. The open reading frames were cloned in pcDNA3.1/V5-His-TOPO (Invitrogen). Cells were transfected using Lipofectamine and further selected using geneticin.
(§2) Cells were seeded and loaded with two fluorochromes, calcein acetoxymethyl ester, a gap junction permeable dye, and Vybrant Dil, a membrane lipophilic dye. […] Flow cytometry was conducted on a FACScan. Inhibition was quantified as the relative number of receiver cells that gained fluorescence to the total number of receiver cells (non GJ-mediated dye transfer was then substracted to these ratio based on connexin non-expressing RIN cells, defined at background dye transfer ratio). This ratio of cellular coupling was then normalized, after each treatment, on the vehicle one.
In general terms: A flow cytometer gives signals particle by particle.

In data set [5] the test system is mice. As to the kind of experiment: Locomotor activity by video tracking. Format: in vivo. The conditions noted are these: oral. The procedure: Locomotor activity is evaluated by video tracking. Videos have been analyzed using Ethovision XT software (Noldus®).*: p<0.01 in a Two-Way ANOVA analysis
For data set [6], the system named is Wild-type C57bl/6 male mice. The data set can be described thus: Wake duration by polysomnographic analysis. The class given is in vivo. The settings on record: oral. The text has this: Wild-type C57bl/6 male mice (n=9/groups) were implanted with EEG/EMG/EOG electrodes for polysomnographic analyses. […] Here the inventors represented the duration of wake during the first three hours (after a one-hour period post-administration). **: p<0.01 in a One-Way ANOVA analysis.

A further data set deals with RIN cells. As to the kind of experiment: Toxicity analysis, cell viability by WST-1. The settings on record: RIN cells treated 4 hours, grown 24 h; at the dose inhibiting cerebral connexins. The class given is cell-based, rat. The procedure:
Twenty thousand RIN were seeded in 100 μl of culture medium in 96-wells plates. After 48 h culture, cells were treated for 4 hours with previously identified chemical compounds at several concentrations. Cells were rinsed in PBS and grown 24 h in fresh medium. Cell viability was measured by using WST-1 (Roche).

A further data set has as its target T2, Cx32 (Homo sapiens, UniProt P08034).
T2 construct: expressed in transfected cells; host or cells: rat insulinoma RIN cell line (Rin-Cx32), pcDNA3.1/V5-His-TOPO, geneticin-selected
As to the kind of experiment: Dye transfer (cell-parachute) gap junction assay, Rin-Cx32 cells. Format: cell-based. The conditions noted are these: flecainide racemate 70, 140 or 280 μM, 4 hours, flow cytometry. Here is the method: as §1, §2

Data set [7] deals with cardiac myocyte cell pairs. The conditions noted are these: cardiac myocyte cell pairs (Daleau et al, 1998); cited from earlier work.
The target of a further data set is T3, Cx40 (Homo sapiens, UniProt P36382).
T3 construct: expressed in transfected cells; host or cells: rat insulinoma RIN cell line (Rin-Cx40), pcDNA3.1/V5-His-TOPO, geneticin-selected
T3 sequence (P36382 whole entry): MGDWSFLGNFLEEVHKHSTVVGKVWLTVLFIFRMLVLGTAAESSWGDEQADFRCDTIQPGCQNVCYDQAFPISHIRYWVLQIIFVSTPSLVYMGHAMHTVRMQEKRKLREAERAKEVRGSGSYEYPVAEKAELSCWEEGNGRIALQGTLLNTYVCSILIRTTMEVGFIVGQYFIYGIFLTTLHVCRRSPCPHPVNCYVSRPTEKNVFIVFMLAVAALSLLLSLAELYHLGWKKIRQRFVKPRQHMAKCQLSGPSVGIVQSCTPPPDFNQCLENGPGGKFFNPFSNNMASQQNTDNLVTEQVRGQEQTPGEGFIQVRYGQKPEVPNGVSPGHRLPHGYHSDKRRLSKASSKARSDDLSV
As to the kind of experiment: Dye transfer (cell-parachute) gap junction assay, Rin-Cx40 cells. Format: cell-based. The settings on record: flecainide racemate 70, 140 or 280 μM, 4 hours, flow cytometry. Here is the method:
as §1, §2

Another data set has as its target T4, Cx30 (Homo sapiens, UniProt O95452).
T4 construct: expressed in transfected cells; host or cells: rat insulinoma RIN cell line (Rin-Cx30), pcDNA3.1/V5-His-TOPO, geneticin-selected
The data set can be described thus: Dye transfer (cell-parachute) gap junction assay, Rin-Cx30 cells. Format: cell-based. The settings on record: flecainide racemate 70, 140 or 280 μM, 4 hours, flow cytometry. The procedure:
as §1, §2

Another data set addresses T5, Cx26 (Homo sapiens, UniProt P29033).
T5 construct: expressed in transfected cells; host or cells: rat insulinoma RIN cell line (Rin-Cx26), pcDNA3.1/V5-His-TOPO, geneticin-selected
The data set can be described thus: Dye transfer (cell-parachute) gap junction assay, Rin-Cx26 cells. Format: cell-based. The settings on record: flecainide racemate 70, 140 or 280 μM, 4 hours, flow cytometry. The procedure:
as §1, §2

Where [8] appears, read: flecainide racemate 1 mg/kg alone.

Entries after “also recorded” stand apart in the source; their conditions may differ.

T4 sequence (O95452 whole entry): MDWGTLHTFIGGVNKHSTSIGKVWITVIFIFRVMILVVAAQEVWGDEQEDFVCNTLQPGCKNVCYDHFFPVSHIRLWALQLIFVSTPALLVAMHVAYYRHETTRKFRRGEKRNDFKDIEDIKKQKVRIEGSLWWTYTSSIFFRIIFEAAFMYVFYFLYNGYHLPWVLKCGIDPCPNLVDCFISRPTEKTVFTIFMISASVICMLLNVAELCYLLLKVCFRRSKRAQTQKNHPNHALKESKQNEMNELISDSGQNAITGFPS
T2 sequence (P08034 whole entry): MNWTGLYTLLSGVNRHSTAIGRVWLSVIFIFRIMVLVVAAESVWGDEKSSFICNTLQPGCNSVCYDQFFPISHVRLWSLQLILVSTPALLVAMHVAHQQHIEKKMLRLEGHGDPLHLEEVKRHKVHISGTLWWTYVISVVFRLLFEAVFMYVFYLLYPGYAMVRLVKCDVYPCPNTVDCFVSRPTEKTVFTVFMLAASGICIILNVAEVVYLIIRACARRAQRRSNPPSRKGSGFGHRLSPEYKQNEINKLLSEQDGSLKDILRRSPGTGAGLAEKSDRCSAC

`NC(=O)C[S+]([O-])C(c1ccccc1)c1ccccc1` (stereo not drawn) [modafinil, 2-[(diphenylmethyl)sulfinyl] acetamide]: the “DREM episodes under modafinil (Lin et al, 2008)” value in the data set on narcoleptic Ox-/- mice [1] is on record as “allows DREM episodes to persist”. In addition, in the data set on narcoleptic Ox-/- mice [2] (modafinil 64 mg/kg alone), the “DREM cataplectic-like phenotype, modafinil alone” value is recorded as “do not have any significant effect”.
As a reminder, the half-life is the time needed for the level to fall by half in the phase considered. On to `O=C(NC[C@H]1CCCCN1)c1cc(OCC(F)(F)F)ccc1OCC(F)(F)F` [R-flecainide, (R)—N-(piperidin-2-ylmethyl)-2,5-bis(2,2,2-trifluoroethoxy)benzamide], for which, in [3], the half-life is listed as 12.9 h and the urinary recovery was 15.6 ± 3.7 mg. In the data set with narcoleptic Ox-/- mice [2] (modafinil 64 mg/kg + enantiomer 1 mg/kg, R- compared with S-flecainide), the “DREM cataplectic-like phenotype, flecainide enantiomer combined with modafinil” value was “more efficient”.
With `O=C(NCC1CCCCN1)c1cc(OCC(F)(F)F)ccc1OCC(F)(F)F` (racemic) [flecainide, N-(piperidin-2-ylmethyl)-2,5-bis(2,2,2-trifluoroethoxy) benzamide], the “Cognitive (promnesiant) effect, flecainide alone” value in the data set with mice [4] (setting [8]) is “no own cognitive effect”. Also, the “Promnesiant activity of modafinil (percentage of alternation) with flecainide added” value in the data set on mice [4] (modafinil 64 mg/kg + flecainide racemate 1 mg/kg) was “significantly potentiates”. Moreover, the “Inhibition of gap junction dye transfer (cellular coupling)” value on Cx43 was “inhibits all the tested isoforms; also recorded: higher inhibition levels”; at Cx32, “inhibits all the tested isoforms”; on Cx40 it was “inhibits all the tested isoforms”; at Cx30 it was “inhibits all the tested isoforms; also recorded: higher inhibition levels”; at Cx26 it was “inhibits all the tested isoforms; also recorded: higher inhibition levels”. The “Locomotor effect, flecainide alone” value in the data set on mice [5] (setting [8]) is reported as “devoid of any own locomotor effect”. The “Duration of effect of modafinil on locomotor activity with flecainide added” value in the data set on mice [5] (modafinil 64 mg/kg + flecainide 1 mg/kg) is recorded as “significantly increases the duration of effect of modafinil”. The “Wake duration, flecainide alone” value in data set [6] (flecainide 1 mg/kg alone) is listed as “devoid of own effect on wake duration”. The “Waking effect of modafinil (wake duration) with flecainide added” value in data set [6] (modafinil 32 mg/kg + flecainide racemate 1 mg/kg, first three hours after one-hour period) was “significantly increases”. In the data set with RIN cells, the “Cell viability (WST-1)” value is reported as “no cell toxicity”. Also, the “Influence on junctional resistance” value in [7] was “not to influence”. In addition, the “DREM cataplectic-like phenotype, flecainide alone” value in the data set with narcoleptic Ox-/- mice [2] (setting [8]) is listed as “no effect”.
For `O=C(NC[C@@H]1CCCCN1)c1cc(OCC(F)(F)F)ccc1OCC(F)(F)F` [S-flecainide, (S)—N-(piperidin-2-ylmethyl)-2,5-bis(2,2,2-trifluoroethoxy)benzamide], in data set [3], the half-life is reported as 9.8 h and the urinary recovery is 12.0 ± 3.7 mg.
